# From US5688787A, “Substituted β-lactam compounds useful as hypochlesterolemic agents and processes for the preparation thereof” (priority 1996, dated 1997)
# Where two headings read alike, the source gives them in different places.
# Key:
# Hyperlipidemic Hamster = assay: In Vivo Assay of Hypolipidemic Agents Using the Hyperlipidemic Hamster; conditions: Mesocricetus auratus, po, 168 h, 7 days, percent change versus control, negative = lowering; for change in vivo at 50 mg/kg: 50 mg/kg once daily oral; for change in vivo at 25 mg/kg: 25 mg/kg once daily oral
# Outline: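 Hamsters, six per group, were fed chow with 0.5% cholesterol for seven days and given compound once daily by oral gavage in corn oil; controls received corn oil alone. Plasma (EDTA) and liver lipids were measured at sacrifice. Values are percent change versus control, so negative means lowering.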
# ACAT = target: T1, ACAT (Rattus norvegicus, UniProt Q7TQM4); assay: ACAT Assay (in vitro); type: biochemical; conditions: for inhibition at 10 µM: Conc. 10 µM, negative = apparent stimulation, read-out: ACAT (in vitro) % Inhib.; for IC50: rat liver microsomes, read-out: ACAT (in vitro) IC50
# T1 construct: Rat liver microsomes are used as the source of ACAT; from tissue; host or cells: rat liver microsomes
# T1 sequence (Q7TQM4 1-524): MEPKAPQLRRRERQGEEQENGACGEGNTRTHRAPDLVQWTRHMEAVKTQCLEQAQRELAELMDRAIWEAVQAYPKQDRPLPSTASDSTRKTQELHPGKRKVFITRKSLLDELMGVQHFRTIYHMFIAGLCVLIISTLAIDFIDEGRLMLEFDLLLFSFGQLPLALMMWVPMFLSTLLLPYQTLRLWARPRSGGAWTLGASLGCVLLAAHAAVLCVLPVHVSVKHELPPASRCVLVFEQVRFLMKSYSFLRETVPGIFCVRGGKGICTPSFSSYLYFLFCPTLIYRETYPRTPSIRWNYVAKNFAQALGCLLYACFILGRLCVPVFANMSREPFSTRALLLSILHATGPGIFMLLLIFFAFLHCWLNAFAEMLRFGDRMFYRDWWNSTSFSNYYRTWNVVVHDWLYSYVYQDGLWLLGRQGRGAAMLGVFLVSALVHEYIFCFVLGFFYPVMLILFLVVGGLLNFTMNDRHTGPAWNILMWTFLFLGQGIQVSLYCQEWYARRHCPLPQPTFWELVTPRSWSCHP
# [1] = read-out: % Reduction (in vivo) Cholest. Esters
# [2] = read-out: % Reduction (in vivo) Serum Cholest.
Compound,inhibition at 10 µM (ACAT),IC50 (ACAT),change in vivo at 50 mg/kg (Hyperlipidemic Hamster; [1]),change in vivo at 50 mg/kg (Hyperlipidemic Hamster; [2]),change in vivo at 25 mg/kg (Hyperlipidemic Hamster; [1]),change in vivo at 25 mg/kg (Hyperlipidemic Hamster; [2])
COc1ccc(N2C(=O)[C@@](C)(CCCCc3ccccc3)[C@@H]2c2ccccc2)cc1 (relative stereo) [Example 3K],19%,–,0%,0%,–,–
CC[C@@]1(CCCCc2ccccc2)C(=O)N(c2ccc(OC)cc2)[C@H]1c1ccccc1 (relative stereo) [Example 3L],53%,–,–,–,0%,0%
CC[C@]1(CCCc2ccccc2)C(=O)N(c2ccc(OC)cc2)[C@H]1c1ccc(OC)cc1 (relative stereo) [Example 3M],13%,–,0%,0%,–,–
CC[C@@]1(CCCc2ccccc2)C(=O)N(c2ccc(OC)cc2)[C@H]1c1ccc(OC)cc1 (relative stereo) [Example 3O],-28%,–,0%,0%,–,–
CCCCCCCCCC[C@]1(c2ccccc2)C(=O)N(c2ccc(OC)cc2)[C@H]1c1ccccc1 (relative stereo) [Example 3R],-8%,–,0%,0%,–,–
CCCCCCCCCC[C@]1(CCCc2ccccc2)C(=O)N(c2ccc(OC)cc2)[C@@H]1c1ccccc1 (relative stereo) [Example 3U],46%,–,0%,0%,–,–
CCCCCCCCCC[C@]1(CC)C(=O)N(c2c(OC)cc(OC)cc2OC)[C@@H]1c1ccccc1 (relative stereo) [Example 3V],60%,6.5 µM,0%,0%,–,–
CCCCCCCCCC[C@@]1(CC)C(=O)N(c2c(OC)cc(OC)cc2OC)[C@@H]1c1ccccc1 (relative stereo) [Example 3W],56%,–,0%,0%,–,–
CCCCCCCCCC[C@]1(C)C(=O)N(c2ccc(OC)cc2)[C@H]1c1ccccc1 (relative stereo) [Example 3Y],-33%,–,0%,0%,–,–
CC[C@@]1(CCCc2ccccc2)C(=O)N(c2ccc(OC)cc2)[C@@H]1/C=C/c1ccccc1 (relative stereo) [Example 3],56%,–,0%,0%,–,–
COc1ccc([C@@H]2[C@@H](N(C)CCc3ccccc3)C(=O)N2c2ccccc2)cc1 (relative stereo) [Example 5N],-23%,–,-55%,-17%,–,–
COc1ccc([C@@H]2[C@@H](CCOc3ccccc3)C(=O)N2c2ccc(OC)cc2)cc1 (relative stereo) [Example 5X],38%,–,-39%,0%,–,–
CC[C@@]1(CCCc2ccccc2)C(=O)N(c2ccc(OC)cc2)[C@H]1CCc1ccccc1 (relative stereo) [Example 6],59%,5 µM,0%,14%,–,–
COc1ccc([C@@H]2N(c3ccc(OC)cc3)C(=O)[C@@]2(c2ccccc2)C2CCCC2)cc1 (relative stereo) [Example 7AD],-22%,–,-12%,-12%,–,–
COc1ccc([C@@H]2N(c3ccc(OC)cc3)C(=O)[C@]2(Cc2ccccc2)c2ccccc2)cc1 (relative stereo) [Example 7AF],53%,–,-15%,23%,–,–
COc1ccc([C@@H]2N(c3ccc(OC)cc3)C(=O)[C@@]2(Cc2ccccc2)c2ccccc2)cc1 (relative stereo) [Example 7AH],-5%,–,16%,16%,–,–
CC[C@@H]1C(=O)N(c2ccc(OC)cc2)[C@H]1c1ccc(N)cc1 (relative stereo) [Example 8A],-17%,–,0%,0%,–,–

# More lines, main results first:
inhibition at 10 µM (ACAT),IC50 (ACAT),Compound,change in vivo at 50 mg/kg (Hyperlipidemic Hamster; [1]),change in vivo at 50 mg/kg (Hyperlipidemic Hamster; [2]),change in vivo at 25 mg/kg (Hyperlipidemic Hamster; [1]),change in vivo at 25 mg/kg (Hyperlipidemic Hamster; [2])
30%,–,COc1ccc([C@@H]2[C@@H](CCCCc3ccccc3)C(=O)N2c2ccc(OC)cc2)cc1 (relative stereo) [Example 5AB],-72%,-28%,–,–
21%,–,COc1ccc(N2C(=O)[C@H](CCCc3ccccc3)[C@H]2c2cccc(OC)c2)cc1 (relative stereo) [Example 5C],-24%,-17%,–,–
53%,–,COc1ccc(N2C(=O)[C@H](CCCc3ccccc3)[C@H]2c2ccc(OC)c(OC)c2)cc1 (relative stereo) [Example 5P],-33%,-11%,–,–
-36%,–,COc1ccc(N2C(=O)[C@H](CCCc3ccccc3)[C@H]2c2ccc3c(c2)OCO3)cc1 (relative stereo) [Example 5Q],-19%,0%,–,–
18%,–,COc1ccc(N2C(=O)[C@H](CCCc3ccccc3)[C@H]2c2ccc(C)cc2)cc1 (relative stereo) [Example 5R],-21%,-20%,–,–
28%,–,CCOc1ccc([C@@H]2[C@@H](CCCc3ccccc3)C(=O)N2c2ccc(OC)cc2)cc1 (relative stereo) [Example 5S],-98%,-52%,–,–
-95%,–,COc1ccc([C@@H]2[C@H](OCCc3ccccc3)C(=O)N2c2ccc(OC)cc2)cc1 (relative stereo) [Example 7AE],-10%,-17%,–,–
-5%,–,COc1ccc(N2C(=O)[C@@H](CCCc3ccccc3)[C@H]2c2ccc(N)cc2)cc1 (relative stereo) [Example 8B],-35%,-9%,–,–
63%,–,COc1ccc(N2C(=O)[C@H](CCCc3ccccc3)[C@H]2c2ccc(N)cc2)cc1 (relative stereo) [Example 8C],0%,0%,–,–
8%,–,COc1ccc(N2C(=O)[C@H](CCCc3ccccc3)[C@H]2c2ccc(O)cc2)cc1 (relative stereo) [Example 8F],-48%,-16%,-45%,-20%
-37%,–,COc1ccc([C@@H]2[C@@H](CCCc3ccccc3)C(=O)N2c2ccc(O)cc2)cc1 (relative stereo) [Example 10A],-58%,-19%,–,–
2%,–,COc1ccc(N2C(=O)[C@@H](CCCc3ccccc3)[C@H]2c2ccc(CO)cc2)cc1 (relative stereo) [Example 15A],0%,0%,–,–
-55%,–,COc1ccc([C@@H]2[C@H](CCCc3ccccc3)C(=O)N2c2ccc(O)cc2)cc1 (relative stereo) [Example 15B],-18%,0%,–,–
-6%,–,COc1ccc(N2C(=O)[C@@H](CCCc3ccccc3)[C@@H]2c2ccc(CO)cc2)cc1 (relative stereo) [Example 15],-46%,-21%,–,–
55%,–,COc1ccc(N2C(=O)[C@H](CCCc3ccccc3)[C@H]2c2ccc(C=O)cc2)cc1 (relative stereo) [Example 16A],-53%,-30%,–,–
42%,–,COc1ccc(N2C(=O)[C@@H](CCCc3ccccc3)[C@H]2c2ccc(C=O)cc2)cc1 (relative stereo) [Example 16],-29%,-25%,–,–
38%,–,COc1ccc(N2C(=O)[C@@H](CCCc3ccccc3)[C@H]2c2ccc(S(C)(=O)=O)cc2)cc1 (relative stereo) [Example 17A],-25%,-11%,–,–
25%,–,COc1ccc(N2C(=O)[C@@H](CCCc3ccccc3)[C@H]2c2ccc([S+](C)[O-])cc2)cc1 (relative stereo) [Example 17],-52%,-17%,–,–
64%,–,COc1ccc(N2C(=O)[C@@H](CCCc3ccccc3)[C@H]2c2ccc(CN3CCOCC3)cc2)cc1 (relative stereo) [Example 19A],-34%,-20%,–,–
